Laboratory results taken from paper PMC5733478, “A Non-imaging High Throughput Approach to Chemical Library Screening at the Unmodified Adenosine-A3 Receptor in Living Cells” (Frontiers in Pharmacology, 2017).
Where a name gives a salt, the structure may show the parent alone.

molecular target: T1, human A3AR (Homo sapiens, UniProt P0DMS8); experiment: LOPAC library primary screen: single concentration (10 μM) inhibition of 25 nM CA200645 binding, PHERAstar FS; settings: not given
T1 construct: expressed in transfected cells
T1 sequence (P0DMS8 1-318): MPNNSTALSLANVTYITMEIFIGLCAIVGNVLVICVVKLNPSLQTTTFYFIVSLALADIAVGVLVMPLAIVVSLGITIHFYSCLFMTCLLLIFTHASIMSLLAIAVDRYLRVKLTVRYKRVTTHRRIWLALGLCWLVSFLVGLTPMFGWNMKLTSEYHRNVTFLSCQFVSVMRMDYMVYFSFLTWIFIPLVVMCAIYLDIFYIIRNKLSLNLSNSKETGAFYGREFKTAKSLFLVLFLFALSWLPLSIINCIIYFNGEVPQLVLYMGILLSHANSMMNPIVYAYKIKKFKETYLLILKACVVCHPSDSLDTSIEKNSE

Structure (SMILES)	% 25 nM CA200645 binding [%]	% Total CA200645 binding [%]
CCc1cc(Cl)c(O)c(C(=O)NC[C@@H]2CCCN2CC)c1OC.Cl [S-(-)-Eticlopride hydrochloride]	96.8 ± 1.1	
[N-]=[N+]=Nc1ccc(C(=O)CSC[C@H](NC(=O)CC[C@H](N)C(=O)O)C(=O)NCC(=O)O)cc1 [S-(p-Azidophenacyl)glutathione]	82.4 ± 8.6	
Br.CCSC(=N)N [S-Ethylisothiourea hydrobromide]	91.5 ± 10.5	
CSC(=N)N.CSC(=N)N.O=S(=O)(O)O [S-Methylisothiourea hemisulfate]	112.2 ± 21.2	
Cc1nn(-c2ccccc2)c(C)c1/C=N/N1CCN(Cc2ccccc2)CC1 [SANT-1]	82.1 ± 15.9	
Cl.Cn1ccc2cc(NC(=O)Nc3cccnc3)ccc21 [SB 200646 hydrochloride]	81.7 ± 19.9	
Oc1ccc(-c2nc(-c3ccncc3)c(-c3ccc(F)cc3)[nH]2)cc1 [SB 202190]	68.5 ± 12.1	
Cc1cc(NC(=O)Nc2ccc3c(ccn3C)c2)sn1 [SB 204741]	88.1 ± 14.4	
CC#CCOC(=O)c1c(C)nc2sc3c(c2c1N)CCC(O)C3 (stereo not drawn) [SB 205384]	95.1 ± 6.2	
Cn1ccc2cc3c(cc21)CCN3C(=O)Nc1cccnc1 [SB 206553 hydrochloride]	60.7 ± 9.3	
Cn1cc(C2=C(c3ccc(Cl)cc3Cl)C(=O)NC2=O)c2ccccc21 [SB 216763]	94.5 ± 10.2	
COC(=O)[C@H](NC(=O)c1cc(-c2ccccc2)nc2ccccc12)c1ccccc1 [SB 218795]	51.1 ± 8.4	
CC[C@H](NC(=O)c1c(C)c(-c2ccccc2)nc2ccccc12)c1ccccc1 [SB 222200]	76.8 ± 5.5	
Cc1cc2c(cc1Cl)N(C(=O)Nc1ccc(Oc3cccnc3C)nc1)CC2.Cl.Cl.O [SB 242084 dihydrochloride hydrate]	49.6± 12.4	
CC1CCN(CC[C@H]2CCCN2S(=O)(=O)c2cccc(O)c2)CC1.Cl [SB 269970 hydrochloride]	93.6 ± 22.9	
Cc1cc2c(cc1Cl)N(C(=O)Nc1cccc3ncccc13)CC2 [SB-215505]	98.1 ± 14.8	
COc1cccc(NC(=O)/C=C/c2ccc(Cl)cc2)c1 [SB-366791]	92.0 ± 7.1	
Cc1cccc(-c2[nH]c(C(C)(C)C)nc2-c2ccc3nccnc3c2)n1 [SB-525334]	76.3 ± 9.5	
CC(=O)NNC(=O)N1Cc2ccccc2Oc2ccc(Cl)cc21 [SC 19220]	105.0 ± 9.4	
NS(=O)(=O)c1ccc(-n2nc(C(F)(F)F)cc2-c2ccc(Cl)cc2)cc1 [SC-236]	90.8 ± 15.2	
O=C(CCSCc1ccco1)NNC(=O)N1Cc2ccccc2Oc2ccc(Cl)cc21 [SC-51322]	86.9 ± 5.7	

Structure (SMILES)	% 25 nM CA200645 binding [%]	% Total CA200645 binding [%]
CN(CCCOc1ccc(Cc2ccccc2)cc1)CCC(=O)O.Cl [SC-57461A]	83.2 ± 13.1	
Nc1nc2c(cnn2CCc2ccccc2)c2nc(-c3ccco3)nn12 [SCH 58261, reference compound]	52.5 ± 9.7	52.2 ± 5.4
Cc1nc2c(OCc3ccccc3)cccn2c1CC#N [SCH-28080]	97.5 ± 14.8	
Br.CN=c1nc(-c2ccccc2)n(-c2ccccc2)s1 [SCH-202676 hydrobromide]	83.4 ± 13.1	
NC(=O)c1ccc2[nH]ccc2c1 [SD-169]	96.7 ± 5.5	
CCN(CC)CCOC(=O)c1cc(Cl)c(N)cc1OC.Cl [SDZ-205,557 hydrochloride]	87.0 ± 9.3	
Cc1ccc(O)c(N=Nc2ccccc2)n1 [SIB 1757]	98.5 ± 4.5	
Cc1cccc(/C=C/c2ccccc2)n1 [SIB 1893]	88.4 ± 9.6	
CCOC(=O)C(C)Oc1cccc2c(=O)n(CC(=O)Nc3ccc4c(c3)OCCO4)ccc12 (stereo not drawn) [SID7969543]	94.8 ± 24.3	
Br.Cc1cccc(C2CN(C)CCc3c2cc(O)c(O)c3Cl)c1 (stereo not drawn) [SKF 83959 hydrobromide]	97.9 ± 6.2	
CN1CCc2cccc(Cl)c2CC1 [SKF 86466]	103.0 ± 12.5	
O=C(O)/C=C\C(=O)O.O=C(O)/C=C\C(=O)O.c1cc(CN2CCCCC2)cc(OCCCNc2nc3ccccc3s2)c1 [SKF 95282 dimaleate]	120.1 ± 40.0	
CCCC(C(=O)OCCN(CC)CC)(c1ccccc1)c1ccccc1.Cl [SKF-525A hydrochloride]	95.3 ± 9.0	
Br.CN1Cc2sccc2C(c2ccc(O)c(O)c2)C1 (stereo not drawn) [SKF-89145 hydrobromide]	97.3 ± 9.6	
C=CCNc1ncnc2ccc(Br)cc12 [SMER28]	86.4 ± 8.7	
C=CCN1C[C@H](C)N([C@H](c2ccc(C(=O)N(CC)CC)cc2)c2cccc(OC)c2)C[C@H]1C [SNC80]	94.8 ± 9.3	
Oc1c2ccccc2c2c3c(cccc13)N=N2 [SP600125]	41.0 ± 10.4	
Nc1ncnc2c1ncn2C1CCCO1 (stereo not drawn) [SQ 22536]	102.7 ± 4.9	
CCc1ccccc1OC[C@@H](O)CN[C@H]1CCCc2ccccc21.O=C(O)C(=O)O [SR 59230A oxalate]	94.8 ± 26.7	
CN(C)c1ccc(/C=C2\C(=O)Nc3ccccc32)cc1 [SU 4312]	53.2 ± 16.7	
OCc1cc(C(O)CNCCCCCCOCCCCc2ccccc2)ccc1O (stereo not drawn) [Salmeterol xinafoate]	92.6 ± 8.3	

Structure (SMILES)	% 25 nM CA200645 binding [%]	% Total CA200645 binding [%]
CCCCCCCCCC[Si](C)(C)CCC(=O)NC(Cc1ccc(C)cc1)c1ccccc1 (stereo not drawn) [Sandoz 58-035]	99.6 ± 12.7	
C[n+]1cc2c3c(ccc2c2ccc4cc5c(cc4c21)OCO5)OCO3 [Sanguinarine chloride]	38.9 ± 20.6	
CCN(CC)CCNC(=O)c1ccc(NS(C)(=O)=O)cc1.Cl.O [Sematilide monohydrochloride monohydrate]	97.5 ± 2.4	
Cl.NNC(N)=O [Semicarbazide hydrochloride]	98.7 ± 22.6	
C[C@H](O)C(=O)C1=Nc2c(nc(N)[nH]c2=O)NC1 [Sepiapterin]	97.4 ± 20.7	
NCCc1c[nH]c2ccc(O)cc12 [Serotonin hydrochloride]	95.8 ± 9.3	
CN[C@H]1CC[C@@H](c2ccc(Cl)c(Cl)c2)c2ccccc21 [Sertraline hydrochloride]	101.1 ± 11.7	
CCCc1nn(C)c2c(=O)[nH]c(-c3cc(S(=O)(=O)N4CCN(C)CC4)ccc3OCC)nc12.O=C(O)CC(O)(CC(=O)O)C(=O)O [Sildenafil citrate salt]	88.1 ± 8.0	
CC(C)(C)C(=O)Oc1ccc(S(=O)(=O)Nc2ccccc2C(=O)NCC(=O)[O-])cc1.[Na+] [Sivelestat sodium salt hydrate]	96.6 ± 6.4	
CC(C)COC(=O)OCN1C(=O)CN(CCN2CC(=O)N(COC(=O)OCC(C)C)C(=O)C2)CC1=O [Sobuzoxane]	111.5 ± 7.6	
NC(=O)C(=O)O [Sodium Oxamate]	96.5 ± 14.4	
NCCCCNCCCN [Spermidine trihydrochloride]	102.2 ± 19.0	
NCCCNCCCCNCCCN [Spermine tetrahydrochloride]	105.8 ± 16.0	
O=C(CCCN1CCC2(CC1)C(=O)NCN2c1ccccc1)c1ccc(F)cc1 [Spiperone hydrochloride]	85.1 ± 18.3	
CC(=O)S[C@@H]1CC2=CC(=O)CC[C@]2(C)[C@H]2CC[C@@]3(C)[C@@H](CC[C@@]34CCC(=O)O4)[C@H]12 [Spironolactone]	94.5 ± 9.9	
O=[N+]([O-])c1ccc2c(c1)S(=O)(=O)C=C2 [Stattic]	107.3 ± 19.6	
O=C1NCc2c1c1c3ccccc3[nH]c1c1[nH]c3ccccc3c21 [Staurosporine aglycone]	81.9 ± 6.1	
C=C1C[C@@]23CC[C@H]4[C@@](C)(CCC[C@@]4(C)C(=O)O)[C@@H]2CC[C@]1(O)C3 [Steviol]	95.9 ± 19.9	
C=C1C[C@@]23CC[C@H]4[C@@](C)(CCC[C@@]4(C)C(=O)O[C@@H]4O[C@H](CO)[C@@H](O)[C@H](O)[C@H]4O)[C@@H]2CC[C@]1(O[C@@H]1O[C@H](CO)[C@@H](O)[C@H](O)[C@H]1O[C@@H]1O[C@H](CO)[C@@H](O)[C@H](O)[C@H]1O)C3 [Stevioside]	92.4 ± 13.9	

same assay, conditions: % of control wells (1% DMSO and 25 nM CA200645); compounds at 10 µM; whole live cells expressing A3AR; mean ± SD, three experiments in duplicate

Structure (SMILES)	% 25 nM CA200645 binding [%]
CS(=O)(=O)c1ccc(-n2nc(C(F)(F)F)cc2-c2ccc(F)cc2)cc1 [SC-58125]	96.5 ± 13.6

same assay, conditions: % of control wells (1% DMSO and 25 nM CA200645); compounds at 10 µM; whole live cells expressing the A3AR; mean ± SD, three experiments in duplicate

Structure (SMILES)	% 25 nM CA200645 binding [%]
COc1ccc(CCCOC(Cn2ccnc2)c2ccc(OC)cc2)cc1 (stereo not drawn) [SKF 96365]	100.0 ± 16.7

same assay, conditions: compounds tested at 10 µM; % of control wells (1% DMSO and 25 nM CA200645); […]; mean ± SD, three experiments in duplicate

Structure (SMILES)	% 25 nM CA200645 binding [%]
Cl.O=C(O)C1CCCN(CCC=C(c2ccccc2)c2ccccc2)C1 (stereo not drawn) [SKF 89976A hydrochloride]	95.9 ± 25.1

same assay, conditions: compounds tested at 10 µM; % of control wells (1% DMSO and 25 nM CA200645); whole live cells expressing the A3AR; mean ± SD, three experiments in duplicate

Structure (SMILES)	% 25 nM CA200645 binding [%]
CSC(N)=NCCC[C@H](N)C(=O)O [S-Methyl-L-thiocitrulline acetate]	102.0 ± 13.0
O=C(O)c1ccccc1Nc1cccc(OCc2ccc3ccccc3n2)c1 [SR 2640]	103.1 ± 17.1
O=C1NC(=O)[C@@]2(CCOc3ccc(F)cc32)N1 [Sorbinil]	96.4 ± 14.0
O=C1NCN(c2ccccc2)C12CCN(CC1COc3ccccc3O1)CC2 (stereo not drawn) [Spiroxatrine]	112.7 ± 3.0
